In ChEMBL document CHEMBL3885881, “DrugMatrix”:

Species: Rattus norvegicus
Assay: DrugMatrix - Regimen: Daily Repeat
Assay type: toxicity, organism-based, Sprague-Dawley
Set-up: regimen Daily Repeat, gender Male, age 6-8 weeks
Settings: in vivo, po, route oral GAVAGE, vehicle .5 % CMC; for ABSOLUTE BASOPHIL / ABSOLUTE EOSINOPHIL / ABSOLUTE LYMPHOCYTE / ABSOLUTE MONOCYTE / ABSOLUTE SEGMENTED NEUTROPHIL / BASOPHIL / EOSINOPHIL / ERYTHROCYTE COUNT / HEMATOCRIT / HEMOGLOBIN / LEUKOCYTE COUNT / LYMPHOCYTE / MEAN CORPUSCULAR HEMOGLOBIN / MEAN CORPUSCULAR HEMOGLOBIN CONCENTRATION / MEAN CORPUSCULAR VOLUME / MONOCYTE / NEUTROPHIL / NUCLEATED RED BLOOD CELLS / PLATELET COUNT: tissue Blood; for ALANINE AMINOTRANSFERASE / ALBUMIN / ALKALINE PHOSPHATASE / ASPARTATE AMINOTRANSFERASE / BLOOD UREA NITROGEN / CARBON DIOXIDE / CHLORIDE / CHOLESTEROL / CREATINE PHOSPHOKINASE / CREATININE / GLUCOSE / LACTATE DEHYDROGENASE / LIPASE / PHOSPHORUS / POTASSIUM / SODIUM / TOTAL BILIRUBIN / TOTAL PROTEIN / URIC ACID: tissue Plasma
[1] = 30 mg/kg, 72 h, dose level Low, time 3 day
[2] = 30 mg/kg, 120 h, dose level Low, time 5 day
[3] = 570 mg/kg, 72 h, dose level High, time 3 day
[4] = 570 mg/kg, 120 h, dose level High, time 5 day

In the case of `O=C(O)COc1ccc(C(=O)c2cccs2)c(Cl)c1Cl`, the “ABSOLUTE BASOPHIL” value [1] is reported as 0 CELLS/uL, the “ABSOLUTE EOSINOPHIL” value [1] is reported as 0 CELLS/uL and the “ABSOLUTE LYMPHOCYTE” value [1] is reported as 7024 CELLS/uL. For the same molecule, the “ABSOLUTE MONOCYTE” value [1] was 269 CELLS/uL, the “ABSOLUTE SEGMENTED NEUTROPHIL” value [1] was 840.33 CELLS/uL and the BASOPHIL [1] was 0%. The EOSINOPHIL [1] was 0%, the “ERYTHROCYTE COUNT” value [1] was 5.29 x10E6/uL and the HEMATOCRIT [1] was 33.2%. For the same molecule, the HEMOGLOBIN [1] was 12.83 G/DL, the “LEUKOCYTE COUNT” value [1] was 8.13 x10E3/uL and the LYMPHOCYTE [1] was 86.33%. For the same molecule, the “MEAN CORPUSCULAR HEMOGLOBIN” value [1] was 24.27 pg, the “MEAN CORPUSCULAR HEMOGLOBIN CONCENTRATION” value [1] was 38.67 G/DL and the “MEAN CORPUSCULAR VOLUME” value [1] was 62.8 fL. For the same molecule, the MONOCYTE [1] was 3%, the NEUTROPHIL [1] was 10.67% and the “NUCLEATED RED BLOOD CELLS” value [1] was 0.67 /100WBC. The “PLATELET COUNT” value [1] was 1021.33 x10E3/uL, the “ALANINE AMINOTRANSFERASE” value [1] was 60.33 u/L and the ALBUMIN [1] was 4.17 G/DL. For the same molecule, the “ALKALINE PHOSPHATASE” value [1] was 394.67 u/L, the “ASPARTATE AMINOTRANSFERASE” value [1] was 94.33 u/L and the “BLOOD UREA NITROGEN” value [1] was 14.67 mg/dL. The “CARBON DIOXIDE” value [1] was 33.67 mmol/L, the CHLORIDE [1] was 99.67 MEQ/L and the CHOLESTEROL [1] was 74 mg/dL. For the same molecule, the “CREATINE PHOSPHOKINASE” value [1] was 524.67 u/L, the CREATININE [1] was 0.26 mg/dL and the GLUCOSE [1] was 144.67 mg/dL. The “LACTATE DEHYDROGENASE” value [1] was 159 u/L, the LIPASE [1] was 9.33 u/L and the PHOSPHORUS [1] was 12.93 mg/dL. For the same molecule, the POTASSIUM [1] was 6.21 MEQ/L, the SODIUM [1] was 144.4 MEQ/L and the “TOTAL BILIRUBIN” value [1] was 0.17 mg/dL. The “TOTAL PROTEIN” value [1] was 6.2 G/DL, the “URIC ACID” value [1] was 0.5 mg/dL and the “ABSOLUTE BASOPHIL” value [2] was 0 CELLS/uL. The “ABSOLUTE EOSINOPHIL” value [2] was 52.67 CELLS/uL, the “ABSOLUTE LYMPHOCYTE” value [2] was 10475.33 CELLS/uL and the “ABSOLUTE MONOCYTE” value [2] was 92 CELLS/uL. The “ABSOLUTE SEGMENTED NEUTROPHIL” value [2] was 1380 CELLS/uL, the BASOPHIL [2] was 0% and the EOSINOPHIL [2] was 0.33%. The “ERYTHROCYTE COUNT” value [2] was 5.51 x10E6/uL, the HEMATOCRIT [2] was 35.03% and the HEMOGLOBIN [2] was 13.53 G/DL. For the same molecule, the “LEUKOCYTE COUNT” value [2] was 12 x10E3/uL, the LYMPHOCYTE [2] was 87.67% and the “MEAN CORPUSCULAR HEMOGLOBIN” value [2] was 24.53 pg. For the same molecule, the “MEAN CORPUSCULAR HEMOGLOBIN CONCENTRATION” value [2] was 38.63 G/DL, the “MEAN CORPUSCULAR VOLUME” value [2] was 63.57 fL and the MONOCYTE [2] was 0.67%. For the same molecule, the NEUTROPHIL [2] was 11.33%, the “NUCLEATED RED BLOOD CELLS” value [2] was 0 /100WBC and the “PLATELET COUNT” value [2] was 1276 x10E3/uL. For the same molecule, the “ALANINE AMINOTRANSFERASE” value [2] was 51 u/L, the ALBUMIN [2] was 4.23 G/DL and the “ALKALINE PHOSPHATASE” value [2] was 420.67 u/L. The “ASPARTATE AMINOTRANSFERASE” value [2] was 78.33 u/L, the “BLOOD UREA NITROGEN” value [2] was 13 mg/dL and the “CARBON DIOXIDE” value [2] was 35.67 mmol/L. The CHLORIDE [2] was 97.33 MEQ/L, the CHOLESTEROL [2] was 80 mg/dL and the “CREATINE PHOSPHOKINASE” value [2] was 446.67 u/L. The CREATININE [2] was 0.27 mg/dL, the GLUCOSE [2] was 136 mg/dL and the “LACTATE DEHYDROGENASE” value [2] was 169.67 u/L. For the same molecule, the LIPASE [2] was 8.33 u/L, the PHOSPHORUS [2] was 12.7 mg/dL and the POTASSIUM [2] was 6.46 MEQ/L. The SODIUM [2] was 142.87 MEQ/L, the “TOTAL BILIRUBIN” value [2] was 0.2 mg/dL and the “URIC ACID” value [2] was 0.8 mg/dL. For the same molecule, the “ABSOLUTE BASOPHIL” value [3] was 0 CELLS/uL, the “ABSOLUTE EOSINOPHIL” value [3] was 0 CELLS/uL and the “ABSOLUTE LYMPHOCYTE” value [3] was 14484.67 CELLS/uL. For the same molecule, the “ABSOLUTE MONOCYTE” value [3] was 271.67 CELLS/uL, the “ABSOLUTE SEGMENTED NEUTROPHIL” value [3] was 1143.67 CELLS/uL and the BASOPHIL [3] was 0%. For the same molecule, the EOSINOPHIL [3] was 0%, the “ERYTHROCYTE COUNT” value [3] was 5.25 x10E6/uL and the HEMATOCRIT [3] was 32.4%. For the same molecule, the HEMOGLOBIN [3] was 12.33 G/DL, the “LEUKOCYTE COUNT” value [3] was 15.9 x10E3/uL and the LYMPHOCYTE [3] was 91.33%. For the same molecule, the “MEAN CORPUSCULAR HEMOGLOBIN” value [3] was 23.47 pg, the “MEAN CORPUSCULAR HEMOGLOBIN CONCENTRATION” value [3] was 38.03 G/DL and the “MEAN CORPUSCULAR VOLUME” value [3] was 61.6 fL. For the same molecule, the MONOCYTE [3] was 1.67%, the NEUTROPHIL [3] was 7% and the “NUCLEATED RED BLOOD CELLS” value [3] was 0 /100WBC. For the same molecule, the “PLATELET COUNT” value [3] was 1320.33 x10E3/uL, the “ALANINE AMINOTRANSFERASE” value [3] was 61.67 u/L and the ALBUMIN [3] was 4.03 G/DL. For the same molecule, the “ALKALINE PHOSPHATASE” value [3] was 478 u/L, the “ASPARTATE AMINOTRANSFERASE” value [3] was 93 u/L and the “BLOOD UREA NITROGEN” value [3] was 14.67 mg/dL. The “CARBON DIOXIDE” value [3] was 35.67 mmol/L, the CHLORIDE [3] was 97 MEQ/L and the CHOLESTEROL [3] was 89.67 mg/dL. The “CREATINE PHOSPHOKINASE” value [3] was 605.33 u/L, the CREATININE [3] was 0.23 mg/dL and the GLUCOSE [3] was 141.33 mg/dL. For the same molecule, the “LACTATE DEHYDROGENASE” value [3] was 128 u/L, the LIPASE [3] was 9 u/L and the PHOSPHORUS [3] was 10.17 mg/dL. For the same molecule, the POTASSIUM [3] was 5.26 MEQ/L, the SODIUM [3] was 142.77 MEQ/L and the “TOTAL BILIRUBIN” value [3] was 0.2 mg/dL. The “TOTAL PROTEIN” value [3] was 6.27 G/DL, the “URIC ACID” value [3] was 0.47 mg/dL and the “ABSOLUTE BASOPHIL” value [4] was 0 CELLS/uL. The “ABSOLUTE EOSINOPHIL” value [4] was 0 CELLS/uL, the “ABSOLUTE LYMPHOCYTE” value [4] was 19963.33 CELLS/uL and the “ABSOLUTE MONOCYTE” value [4] was 319.33 CELLS/uL. For the same molecule, the “ABSOLUTE SEGMENTED NEUTROPHIL” value [4] was 2417.33 CELLS/uL, the BASOPHIL [4] was 0% and the EOSINOPHIL [4] was 0%. The “ERYTHROCYTE COUNT” value [4] was 5.25 x10E6/uL, the HEMATOCRIT [4] was 32.67% and the HEMOGLOBIN [4] was 12.47 G/DL. The “LEUKOCYTE COUNT” value [4] was 22.7 x10E3/uL, the LYMPHOCYTE [4] was 88.33% and the “MEAN CORPUSCULAR HEMOGLOBIN” value [4] was 23.73 pg. The “MEAN CORPUSCULAR HEMOGLOBIN CONCENTRATION” value [4] was 38.17 G/DL, the “MEAN CORPUSCULAR VOLUME” value [4] was 62.33 fL and the MONOCYTE [4] was 1.33%. For the same molecule, the NEUTROPHIL [4] was 10.33%, the “NUCLEATED RED BLOOD CELLS” value [4] was 0 /100WBC and the “PLATELET COUNT” value [4] was 1428 x10E3/uL. For the same molecule, the “ALANINE AMINOTRANSFERASE” value [4] was 48 u/L, the ALBUMIN [4] was 4.13 G/DL and the “ALKALINE PHOSPHATASE” value [4] was 359.33 u/L. The “ASPARTATE AMINOTRANSFERASE” value [4] was 74 u/L, the “BLOOD UREA NITROGEN” value [4] was 15.67 mg/dL and the “CARBON DIOXIDE” value [4] was 34.33 mmol/L. The CHLORIDE [4] was 100 MEQ/L, the CHOLESTEROL [4] was 70.33 mg/dL and the “CREATINE PHOSPHOKINASE” value [4] was 268.67 u/L. The CREATININE [4] was 0.29 mg/dL, the GLUCOSE [4] was 144 mg/dL and the “LACTATE DEHYDROGENASE” value [4] was 153.33 u/L. The LIPASE [4] was 6.67 u/L, the PHOSPHORUS [4] was 11 mg/dL and the POTASSIUM [4] was 6.13 MEQ/L. For the same molecule, the SODIUM [4] was 144.77 MEQ/L, the “TOTAL BILIRUBIN” value [4] was 0.2 mg/dL and the “TOTAL PROTEIN” value [4] was 6.1 G/DL. The “URIC ACID” value [4] was 1.3 mg/dL.
